As a reminder, the EC50 is the midpoint of the concentration-response curve. Low readings indicate higher potency in that assay, high ones lower potency in that assay.

The values below come from ChEMBL document CHEMBL1128782, “Nucleosides and nucleotides. 142. an alternative synthesis of and its antiviral activity” (Bioorg Med Chem Lett, 1995).

The subject of one test is Human betaherpesvirus 5. Kind of test: Effective dose required for plaque reduction in human cytomegalovirus (HCMV) was determined. The class given is functional, organism-based.
For test [1], the system named is Influenza B virus. Kind of test: Effective dose required to reduce virus induced cytopathogenicity by Influenza B (Fu 207) was determined. It counts as functional, organism-based. (Protection from cytopathic effect is a common read-out in antiviral testing.)
Test [2] deals with Vesicular stomatitis virus. Kind of test: Effective dose required for plaque reduction in vesicular stomatitis virus (VSV) was determined. The class given is functional, organism-based.
The test system of test [3] is Influenza B virus. Kind of test: Effective dose required to reduce virus induced cytopathogenicity by Influenza B(Fu 207) was determined. It counts as functional, organism-based.
Test [4] relates to Influenza B virus. Put plainly: Effective dose required to reduce virus induced cytopathogenicity by Influenza B(singapore) was determined. The class given is functional, organism-based.
Another test has as its system Influenza A virus. Put plainly: Effective dose required to reduce virus induced cytopathogenicity by Influenza A(H1N1,Fu 88) was determined. It counts as functional, organism-based.
Test [5] can be described thus: Evaluated for time-dependent and irreversible inhibitor of bovine S-adenosyl-L-homocysteine. The arrangement: species or system Bos taurus.

Molecules are shown by their SMILES. Values after ≈ are worked out from the molar mass of the structure shown. A value given as a limit tells only on which side of the number the result lay.

For `Nc1ncnc2c1ncn2C1O[C@H](C=C(Br)Br)[C@@H](O)[C@H]1O` (some centres not stated), the figures for the 50% effective concentration (EC50) (in the test on Human betaherpesvirus 5; in the test with Influenza B virus [1]; in test [2]) were above 10 µg/mL, 32 µg/mL (≈ 76 µM) and above 10 µg/mL, respectively.
On to `NC(=O)c1ncn([C@@H]2O[C@H](CO)[C@@H](O)[C@H]2O)n1` [RIBAVIRIN], for which the concentration for a half-maximal effect (EC50) in the test on Human betaherpesvirus 5 is above 10 µg/mL; in the test on Influenza B virus [3], 36.9 µg/mL (≈ 151 µM); in the test on Influenza B virus [4] it was 6.7 µg/mL (≈ 27.4 µM); in test [2], above 10 µg/mL; with Influenza A virus, 19.6 µg/mL (≈ 80.3 µM).
As to `Nc1ncnc2c1ncn2[C@@H]1C=C(CO)[C@@H](O)[C@H]1O` [NEOPLANOCIN A], the half-maximal effective concentration (EC50) was 0.2 µg/mL (≈ 0.76 µM) in the test on Human betaherpesvirus 5; above 20 µg/mL in the test on Influenza B virus [3]; above 20 µg/mL in the test on Influenza B virus [4]; 0.38 µg/mL (≈ 1.44 µM) in test [2]; above 20 µg/mL in the test with Influenza A virus.
Consider `C#C[C@H]1OC(n2cnc3c(N)ncnc32)[C@H](O)[C@@H]1O` (some centres not stated), for which the concentration giving a half-maximal response (EC50) turned out to be 8.2 µg/mL (≈ 31.4 µM) with Human betaherpesvirus 5; 1.8 µg/mL (≈ 6.89 µM) with Influenza B virus [3]; 0.9 µg/mL (≈ 3.45 µM) with Influenza B virus [4]; 0.14 µg/mL (≈ 0.536 µM) in test [2]; 0.38 µg/mL (≈ 1.45 µM) with Influenza A virus. The compound also yielded a Ki in test [5] of 173 nM.
Turning to `N#C[C@H]1OC(n2cnc3c(N)ncnc32)[C@H](O)[C@@H]1O` (some centres not stated), the results for the EC50 (in the test on Human betaherpesvirus 5; with Influenza B virus [3]; in test [2]) were 1.4 µg/mL (≈ 5.34 µM), 10 µg/mL (≈ 38.1 µM) and 1.2 µg/mL (≈ 4.58 µM), respectively.
